The record followed here is patent US12263248B2, “Compounds and compositions for intracellular delivery of therapeutic agents” (ModernaTX, Inc., priority 2018, dated 2025).

The structures appear in SMILES notation. Marks after values point to notes of the source that are not given here.

One series relates to sC5b-9. Nature of the series: Complement activation in vitro (sC5b-9 levels). It counts as cell-based. Particulars: human cells contacted in vitro. The method in brief:
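Human cells exposed in vitro to nanoparticle compositions, with the soluble terminal complement complex sC5b-9 measured as a marker of complement activation.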

The next series deals with hEPO mRNA. Briefly: hEPO expression after intramuscular administration to mice. Format: in vivo. Particulars: for Fold increase in hEPO concentration relative to MC3: mice, 0.01 mpk, 6 hr time point; for Novel lipid/MC3 ratio, 6 hr. timepoint, i.m. hEPO: relative to MC3, Table 3G.
Another series deals with IP-10. Briefly: Cytokine induction in rats after intravenous administration. Format: in vivo, rat. Particulars: rats, 2.0 mpk, 6 hours, hEPO nanoparticle compositions. Here is the method:
The expression of hEPO and cytokine induction in rats intravenously administered a nanoparticle composition at a dose of 2.0 mpk was measured at 6 h.
Table 19A summarizes the hEPO expression, IP-10 induction, liver and spleen levels, and alanine aminotransferase (ALT) and aspartate aminotransferase (AST) measured upon intravenous administration of formulations including Compounds 48, 49, and 50 to rat at 0.2 and 2 mpk and hEPO mRNA. hEPO concentrations were measured 6 hours after administration, while cytokine induction and liver and spleen levels were measured 48 hours after administration. hEPO and IP-10 concentrations are presented in pg/ml, while liver levels are provided in ng/g. ALT and AST levels are presented in international units.

In the next series the test system is luciferase mRNA. Briefly: Luciferase expression after subcutaneous administration to mice. Particulars: for Novel lipid/MC3 expression ratio, s.c. Luc 0.5 mpk (AUC): relative to MC3; for Lipid/MC3 AUC ratio: luciferase; for AUC (luciferase expression): whole body BLI; for Novel lipid/MC3 ratio, s.c. Luc 6 hr.: relative to MC3, Table 3G. It counts as in vivo, female CD-1 mice. In a few lines:
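Female CD-1 mice given luciferase mRNA in lipid nanoparticle formulations subcutaneously at 0.5 mpk. Expression read by whole-body bioluminescence imaging at 3, 6 and 24 h, with ex vivo liver, spleen and injection-site luminescence at 24 h.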

Series [1] concerns luciferase (Luc) mRNA. Nature of the series: Luc expression in liver, lung, spleen and femur 6 hours after intravenous administration. It counts as in vivo. Particulars: mice, intravenous, 0.5 mpk. In a few lines:
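LNP-formulated mRNA given IV to mice (n=3) at 0.5 mpk; at 6 h, bioluminescence imaged ex vivo 15 min after IP D-luciferin (15 mg/mL, 200 μL), organs imaged within 25 min. Values are total flux by region of interest.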

In series [2] the test system is luciferase (Luc) mRNA. Nature of the series: Luc expression (total flux) after intramuscular administration. Format: in vivo, mice. Particulars: for Total flux, 0.001 mpk Dose / Total flux, 0.01 mpk Dose: 6 hours after intramuscular administration, Luc mRNA and H10 mRNA; for Novel lipid/MC3 expression ratio, 6 hr. time point, i.m. Luc: intramuscular, relative to MC3 formulation. In a few lines:
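Mice given a single intramuscular dose of lipid nanoparticle formulations carrying modified Luc mRNA, alone or with H10 mRNA, at 0.001 or 0.01 mpk total. Luciferase expression recorded as total flux.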

Regarding `CCCCCCCCCOC(=O)CCCCCCCN(CCO)CCCCCCCOC(=O)C(CCCCCCCC)CCCCCCCC` [Compound 30, 7-((2-Hydroxyethyl)(8-(nonyloxy)-8-oxooctyl)amino)heptyl 2-octyldecanoate], the “Fold increase in sC5b-9 levels versus saline” value in the series with sC5b-9 came out at 0.94. Also, the “sC5b-9 levels relative to saline” value in the series with sC5b-9 (in words) is “slightly decrease”. Besides, in the series on hEPO mRNA, the “Fold increase in hEPO concentration relative to MC3” value worked out at 9.2 and the “Novel lipid/MC3 ratio, 6 hr. timepoint, i.m. hEPO” value is recorded as 9.2. This compound registered an IP-10 in the series with IP-10 of 214.5 pg/mL. Moreover, in the series with luciferase mRNA (0.5 mpk), the “Novel lipid/MC3 expression ratio, s.c. Luc 0.5 mpk (AUC)” value is “(AUC: 6.38)”; the “Lipid/MC3 AUC ratio” value stood at 6.38; the “AUC (luciferase expression)” value was 1.0932E+11 (p/s) * h. For the same compound, in the series on luciferase mRNA, the “Novel lipid/MC3 ratio, s.c. Luc 6 hr.” value was found to be 6.53. In addition, the “factor by which MC3 is outperformed” value with luciferase mRNA (female CD-1 mice, 0.5 mpk) worked out at 6.5. In the series on luciferase (Luc) mRNA [1], the “Total Flux Femur” value is on record as 6.38E+06, the “Total Flux Liver” value came out at 2.68E+09, the “Total Flux Lung” value is given as 1.02E+07 and the “Total Flux Spleen” value worked out at 3.55E+07. In addition, in the series with luciferase (Luc) mRNA [2], the “Total flux, 0.001 mpk Dose” value is 2.47E+06 p/s; the “Total flux, 0.01 mpk Dose” value came to 3.77E+07 p/s; the “Novel lipid/MC3 expression ratio, 6 hr. time point, i.m. Luc” value was 4.69.

As for `CCCCCCCCCCCOC(=O)CCCCCN(CCO)CCCCCCCC(=O)OC(CCCCCCCC)CCCCCCCC` [Compound 25, Heptadecan-9-yl 8-((2-hydroxyethyl)(6-oxo-6-(undecyloxy)hexyl)amino)octanoate], the “Fold increase in sC5b-9 levels versus saline” value in the series with sC5b-9 is on record as 1.02. Besides, in the series on hEPO mRNA, the “Fold increase in hEPO concentration relative to MC3” value was found to be 7.1 and the “Novel lipid/MC3 ratio, 6 hr. timepoint, i.m. hEPO” value is 7.1. In addition, in the series on IP-10, the IP-10 was found to be 533.5 pg/mL. For the same compound, in the series on luciferase mRNA (0.5 mpk), the “Novel lipid/MC3 expression ratio, s.c. Luc 0.5 mpk (AUC)” value was “(AUC: 1.7)”; the “Lipid/MC3 AUC ratio” value is given as 1.70; the “AUC (luciferase expression)” value is 2.9156E+10 (p/s) * h. Moreover, the “Novel lipid/MC3 ratio, s.c. Luc 6 hr.” value in the series with luciferase mRNA is recorded as 1.73. For the same compound, in the series on luciferase (Luc) mRNA [1], the “Total Flux Femur” value was determined as 4.40E+06, the “Total Flux Liver” value stood at 2.41E+09, the “Total Flux Lung” value was found to be 1.51E+07 and the “Total Flux Spleen” value stood at 3.11E+07. In addition, in the series with luciferase (Luc) mRNA [2], the “Total flux, 0.001 mpk Dose” value came to 3.53E+06 p/s; the “Total flux, 0.01 mpk Dose” value is listed as 9.96E+07 p/s; the “Novel lipid/MC3 expression ratio, 6 hr. time point, i.m. Luc” value is given as 1.46.
